# Reference: PubChem BioAssay (NCI)
#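 Tested at 5 concentrations; 48 h exposure; 96-well plates; endpoints linearly interpolated, else capped at highest concentration. GI50: concentration for 50% inhibition of growth. The concentration for full growth arrest is given as TGI.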
# Experiments:
# Experiment in all cases: NCI tumour cell line growth inhibition, 48 h
# [1] = tested on: 786-0 renal
# [2] = tested on: A498 renal
# [3] = tested on: A549 NSCLC
# [4] = tested on: ACHN renal
# [5] = tested on: BT-549 breast
# [6] = tested on: CAKI-1 renal
# [7] = tested on: CCRF-CEM leukemia
# [8] = tested on: COLO 205 colon
# [9] = tested on: DU-145 prostate
# [10] = tested on: EKVX NSCLC
# [11] = tested on: HCC-2998 colon
# [12] = tested on: HCT-116 colon
# [13] = tested on: HCT-15 colon
# [14] = tested on: HL-60(TB) leukemia
# [15] = tested on: HOP-62 NSCLC
# [16] = tested on: HOP-92 NSCLC
# [17] = tested on: HS 578T breast
# [18] = tested on: HT29 colon
# [19] = tested on: IGROV1 ovarian
# [20] = tested on: K-562 leukemia
# [21] = tested on: KM12 colon
# [22] = tested on: LOX IMVI melanoma
# [23] = tested on: M14 melanoma
# [24] = tested on: MALME-3M melanoma
# [25] = tested on: MCF7 breast
# [26] = tested on: MDA-MB-231 breast
# [27] = tested on: MDA-MB-435
# [28] = tested on: MDA-MB-468 breast
# [29] = tested on: MOLT-4 leukemia
# [30] = tested on: NCI-H226 lung
# [31] = tested on: NCI-H23 lung
# [32] = tested on: NCI-H460 lung
# [33] = tested on: NCI-H522 lung
# [34] = tested on: NCI/ADR-RES ovarian
# [35] = tested on: OVCAR-3 ovarian
# [36] = tested on: OVCAR-4 ovarian
# [37] = tested on: OVCAR-5 ovarian
# [38] = tested on: OVCAR-8 ovarian
# [39] = tested on: PC-3 prostate
# [40] = tested on: RPMI-8226 leukemia
# [41] = tested on: RXF 393 renal
# [42] = tested on: SF-268 CNS
# [43] = tested on: SF-295 CNS
# [44] = tested on: SF-539 CNS
# [45] = tested on: SK-MEL-2 melanoma
# [46] = tested on: SK-MEL-28 melanoma
# [47] = tested on: SK-MEL-5 melanoma
# [48] = tested on: SK-OV-3 ovarian
# [49] = tested on: SN12C renal
# [50] = tested on: SNB-19 CNS
# [51] = tested on: SNB-75 CNS
# [52] = tested on: SR leukemia
# [53] = tested on: SW-620 colon
# [54] = tested on: T-47D breast
# [55] = tested on: TK-10 renal
# [56] = tested on: U251 CNS
# [57] = tested on: UACC-257 melanoma
# [58] = tested on: UACC-62 melanoma
# [59] = tested on: UO-31 renal
smiles,measurement,setting,value
COc1cc(OC)c2c3nc4cc(C)c(C)cc4nc3n(CCN(C)C)c2c1,GI50,[1],14.2 µM
same,TGI,[1],29.2 µM
same,GI50,[2],> 100 µM
same,TGI,[2],> 100 µM
same,GI50,[3],4.98 µM
same,TGI,[3],22.9 µM
same,GI50,[4],11.1 µM
same,TGI,[4],23.1 µM
same,GI50,[5],14.2 µM
same,TGI,[5],28.5 µM
same,GI50,[6],15.9 µM
same,TGI,[6],29.8 µM
same,GI50,[7],22.4 µM
same,TGI,[7],> 100 µM
same,GI50,[8],5.51 µM
same,TGI,[8],20 µM
same,GI50,[9],14.5 µM
same,TGI,[9],28.2 µM
same,GI50,[10],14.7 µM
same,TGI,[10],28.3 µM
same,GI50,[11],12.7 µM
same,TGI,[11],26.1 µM
same,GI50,[12],13.9 µM
same,TGI,[12],30.3 µM
same,GI50,[13],11.4 µM
same,TGI,[13],24.7 µM
same,GI50,[14],16.3 µM
same,TGI,[14],36.4 µM
same,GI50,[15],5.75 µM
same,TGI,[15],22.2 µM
same,GI50,[16],11.5 µM
same,TGI,[16],31.1 µM
same,GI50,[17],15.7 µM
same,TGI,[17],39.5 µM
same,GI50,[18],4.88 µM
same,TGI,[18],31.4 µM
same,GI50,[19],12 µM
same,TGI,[19],26.1 µM
same,GI50,[20],3.1 µM
same,TGI,[20],25.3 µM
same,GI50,[21],17.5 µM
same,TGI,[21],34.2 µM
same,GI50,[22],8.99 µM
same,TGI,[22],22.7 µM
same,GI50,[23],13.5 µM
same,TGI,[23],30.6 µM
same,GI50,[24],14.1 µM
same,TGI,[24],28.1 µM
same,GI50,[25],4.75 µM
same,TGI,[25],19.2 µM
same,GI50,[26],11.6 µM
same,TGI,[26],24.2 µM
same,GI50,[27],14.5 µM
same,TGI,[27],28.2 µM
same,GI50,[28],12.8 µM
same,TGI,[28],26.4 µM
same,GI50,[29],10.6 µM
same,TGI,[29],41.7 µM
same,GI50,[30],14.4 µM
same,TGI,[30],32.3 µM
same,GI50,[31],13.1 µM
same,TGI,[31],27.8 µM
same,GI50,[32],12.1 µM
same,TGI,[32],26.5 µM
same,GI50,[33],13.5 µM
same,TGI,[33],33.6 µM
same,GI50,[34],10 µM
same,TGI,[34],27.7 µM
same,GI50,[35],16.1 µM
same,TGI,[35],30.6 µM
same,GI50,[36],14.9 µM
same,TGI,[36],33.6 µM
same,GI50,[37],15.1 µM
same,TGI,[37],29.1 µM
same,GI50,[38],2.4 µM
same,TGI,[38],6.84 µM
same,GI50,[39],15.5 µM
same,TGI,[39],61.4 µM
same,GI50,[40],19.9 µM
same,TGI,[40],> 100 µM
same,GI50,[41],11.8 µM
same,TGI,[41],25.1 µM
same,GI50,[42],14.4 µM
same,TGI,[42],32.1 µM
same,GI50,[43],13.1 µM
same,TGI,[43],26.2 µM
same,GI50,[44],15 µM
same,TGI,[44],28.3 µM
same,GI50,[45],16.7 µM
same,TGI,[45],35.4 µM
same,GI50,[46],15.6 µM
same,TGI,[46],29.3 µM
same,GI50,[47],16.1 µM
same,TGI,[47],29.8 µM
same,GI50,[48],16.7 µM
same,TGI,[48],32.1 µM
same,GI50,[49],11.5 µM
same,TGI,[49],24.6 µM
same,GI50,[50],12.9 µM
same,TGI,[50],25.7 µM
same,GI50,[51],12.1 µM
same,TGI,[51],25.5 µM
same,GI50,[52],4.29 µM
same,TGI,[52],50.7 µM
same,GI50,[53],4.65 µM
same,TGI,[53],18.7 µM
same,GI50,[54],12.9 µM
same,TGI,[54],32.1 µM
same,GI50,[55],16.5 µM
same,TGI,[55],31.9 µM
same,GI50,[56],12.8 µM
same,TGI,[56],28 µM
same,GI50,[57],14.9 µM
same,TGI,[57],31.9 µM
same,GI50,[58],15.2 µM
same,TGI,[58],29.1 µM
same,GI50,[59],6.21 µM
same,TGI,[59],20.2 µM
